Source: PubChem BioAssay AID743132 (The Scripps Research Institute Molecular Screening Center, 2013)
pIC50: −log10 of the molar value. Active and inactive are the calls of the source.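 Rule for the calls: active = compounds blocking probe labeling of mouse brain LYPLA1 and LYPLA2 with IC50 at most 1000 nM; inactive = IC50 above 1000 nM.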

Key:
Test in all cases: LYPLA1/2 inhibition with ABHD6 and FAAH off-targets, late-stage follow-up, selectivity assay for LYPLA1/LYPLA2 inhibitor project, cell lysate, mouse brain membrane proteome, fluorescence gel (AID 743132)
[1] = molecular target: Acyl-protein thioesterase 1 (Mus musculus) (UniProt P97823); settings: gel-based ABPP FP-Rh fluorescence, LYPLA1/2
FAAH = settings: gel-based ABPP FP-Rh fluorescence
[2] = molecular target: Monoacylglycerol lipase ABHD6 (Mus musculus) (UniProt Q8R2Y0); settings: gel-based ABPP FP-Rh fluorescence
Sequence of Monoacylglycerol lipase ABHD6 (Mus musculus) (Q8R2Y0 whole entry, looked up): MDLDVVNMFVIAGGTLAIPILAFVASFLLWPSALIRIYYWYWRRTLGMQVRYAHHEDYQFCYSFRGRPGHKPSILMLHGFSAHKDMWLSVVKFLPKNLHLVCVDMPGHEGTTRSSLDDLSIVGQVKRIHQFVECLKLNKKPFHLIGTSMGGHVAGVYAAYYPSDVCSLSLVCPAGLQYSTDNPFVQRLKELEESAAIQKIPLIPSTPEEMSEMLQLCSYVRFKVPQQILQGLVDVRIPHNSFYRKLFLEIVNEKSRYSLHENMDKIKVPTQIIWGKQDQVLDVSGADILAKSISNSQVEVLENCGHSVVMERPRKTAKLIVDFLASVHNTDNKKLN

Sequence of Acyl-protein thioesterase 1 (Mus musculus) (P97823 whole entry, looked up): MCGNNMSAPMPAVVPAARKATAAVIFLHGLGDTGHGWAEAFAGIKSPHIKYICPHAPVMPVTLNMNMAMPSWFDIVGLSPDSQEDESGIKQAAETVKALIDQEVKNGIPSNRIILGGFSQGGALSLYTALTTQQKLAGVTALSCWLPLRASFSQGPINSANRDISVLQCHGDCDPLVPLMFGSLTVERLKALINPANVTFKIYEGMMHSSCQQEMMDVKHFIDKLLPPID

How did the pIC50 [1] turn out when O=C(ON1C(=O)C2CN(C(=O)N3CCOCC3)CCN2C1=O)N1CCC(CCc2ccc(Cl)cc2)CC1 (stereo not drawn) was run?
The pIC50 was 6.81.

What about the IC50 (FAAH) of the same compound?
The IC50 was “inactive”.

And the pIC50 [2]?
Its pIC50 is 8.50.
